Results on seven compounds are retold here after US20070191311A1, “P2x receptor inhibitor” (priority 2004, published 2007).

The target of one series is T1, rat type P2X2/3 receptor (Rattus norvegicus, UniProt P49653+P49654).
T1 construct: expressed in transfected cells; host or cells: CHO cells (selected with G-418)
T1 sequence (P49653 1-472): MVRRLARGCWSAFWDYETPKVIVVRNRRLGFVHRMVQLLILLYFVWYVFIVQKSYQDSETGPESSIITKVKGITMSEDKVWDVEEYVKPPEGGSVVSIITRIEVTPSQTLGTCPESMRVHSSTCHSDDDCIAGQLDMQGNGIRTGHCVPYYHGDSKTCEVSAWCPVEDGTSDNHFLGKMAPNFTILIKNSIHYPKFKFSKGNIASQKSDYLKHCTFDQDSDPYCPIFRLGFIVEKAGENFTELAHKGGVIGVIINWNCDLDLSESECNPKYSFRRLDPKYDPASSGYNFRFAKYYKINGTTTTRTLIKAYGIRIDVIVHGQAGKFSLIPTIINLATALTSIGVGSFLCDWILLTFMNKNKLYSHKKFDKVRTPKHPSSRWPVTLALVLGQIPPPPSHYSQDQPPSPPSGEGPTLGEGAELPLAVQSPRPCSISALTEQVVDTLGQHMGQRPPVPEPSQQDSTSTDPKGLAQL
T1 sequence (P49654 1-397): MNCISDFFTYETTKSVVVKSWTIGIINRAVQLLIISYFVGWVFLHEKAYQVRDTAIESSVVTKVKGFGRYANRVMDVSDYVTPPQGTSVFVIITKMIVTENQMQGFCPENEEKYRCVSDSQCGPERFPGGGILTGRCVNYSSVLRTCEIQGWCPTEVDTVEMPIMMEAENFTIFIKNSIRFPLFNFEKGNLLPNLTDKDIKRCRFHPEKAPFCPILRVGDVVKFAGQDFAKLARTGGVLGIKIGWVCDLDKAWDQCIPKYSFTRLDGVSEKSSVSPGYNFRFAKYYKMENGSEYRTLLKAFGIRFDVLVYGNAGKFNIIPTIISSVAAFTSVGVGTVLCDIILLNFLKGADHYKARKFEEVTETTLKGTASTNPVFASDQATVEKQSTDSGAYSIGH
As to the kind of experiment: P2X2/3 receptor inhibitory activity ([14C]-guanidine uptake stimulated by αβ-me ATP in CHO cells). Conditions: for IC50: CHO cell expressing rat type P2X2/3 receptor, 4 μM αβ-me ATP, [14C]-guanidine, 15 minutes room temperature, read-out: IC50 (concentration which inhibits 50% of the function of P2X2/3 receptor); for P2X2/3,3 receptor inhibitory activity (in words): Table 1. The class given is cell-based. On the procedure: On the day before the test, the resulting cells were inoculated onto a 96-well culture plate at a density of about 6×10^4 cells/well and cultured for 24 hours in the medium containing 2 units/ml of apyrase 2.

The conditions of series [1]: in vivo; cited from earlier work.
For series [2], the system named is patients of multiple myeloma. The following applies: oral 6 mg once a day; 24 weeks; cited from earlier work.
For the next series, the system named is mouse. As to the kind of experiment: Formalin induced pain behavior. The format is in vivo.
Series [3] deals with patients of bone metastasis of breast cancer and bone metastasis of lung cancer. Put plainly: Clinical test in patients of bone metastasis of breast cancer and lung cancer. The class given is in vivo, human. Conditions: 1 or 2 mg once in 2 weeks for 12 weeks; from the initial evaluation time (1st week).
Series [4] has as its system mice. As to the kind of experiment: αβ-me ATP induced pain behavior. Conditions: for αβ-me ATP induced pain behavior (total time of lifting and licking): 30 minutes before αβ-me ATP, significant difference to control. The class given is in vivo. On the procedure: 16 (2000). […] Total time of lifting (a behavior of lifting the administered side sole from the floor face) and licking (a behavior of licking and biting the administered side sole) occurred during 5 minutes just after the administration of αβ-me ATP was measured. […] Test on the statistical significant difference between the solvent administration group used as a control group and the test substance administration group was carried out using the Dunnett method.

Series [5] has as its system mice. Put plainly: Acetic acid induced pain behavior (writhing). The class given is in vivo. The procedure:
This test was carried out with reference to the method described in Pain, 96, p. […] After 30 minutes thereof, 0.6% acetic acid was intraperitoneally administered (10 ml/kg). Frequency of writhing (a body writhing behavior) occurred within a period of 15 minutes, starting from 2 minutes after the acetic acid administration until 17 minutes thereafter, was measured. The test was carried out twice as the test 1 and test 2. Test on the statistical significant difference between the solvent administration group used as a control group and the test substance administration group was carried out using the Dunnett method.

The next series has as its system rat cancer pain model. The following applies: continuously administered for 19 days; cited from earlier work.
A further series has as its system cancer patients. Conditions: clinical test; cited from earlier work.

Some results are limits rather than exact numbers.

Protocol for mouse: The test substance or solvent was subcutaneously administered to each mouse at a volume of 10 ml/kg. After 30 minutes thereof, formalin was administered under the skin of one sole (2.0%, 20 μl/body). Total time of lifting (a behavior of lifting the administered side sole from the floor face) and licking (a behavior of licking and biting the administered side sole) occurred during every 5 minutes was measured over 30 minutes starting just after the administration of formalin. By defining the period of from 0 to 5 minutes after the formalin administration as a phase I (Phase I), and that of from 10 to 30 minutes as a phase II (Phase II), the total time of lifting and licking occurred in each phase was calculated.

For `NCCC(O)(P(=O)(O)O)P(=O)(O)O` [pamidronate], at rat type P2X2/3 receptor, the IC50 was more than 300 µM and the “P2X2/3,3 receptor inhibitory activity (in words)” value is “did not show the P2X2/3,3 receptor inhibitory activity”. Besides, the “analgesic action in the tail-flick test” value in series [1] is on record as “dose-dependent analgesic action”.

`O=P(O)(O)C(O)(Cc1cnc2ccccn12)P(=O)(O)O` [minodronic acid hydrate]: in series [2], the “bone pain in multiple myeloma patients” value was “improved” and the “used amount of an analgesic in multiple myeloma patients” value is “reduced”. In addition, in the series with mouse (30 mg/kg s.c.), the “formalin induced pain behavior, Phase I (0 to 5 minutes)” value is listed as “did not exert influence” and the “formalin induced pain behavior, Phase II (10 to 30 minutes)” value is reported as “suppressed”. In the series with mouse (formalin test), the “behavioral side effect at the time of the pain behavior observation” value is reported as “not observed”.

On to `O=P(O)(O)C(O)(Cc1cnc2ccccn12)P(=O)(O)O` [minodronic acid, 1-hydroxy-2-(imidazo[1,2-a]pyridin-3-yl)ethane-1,1-bisphosphonic acid], for which the “pain value (bone pain) in patients” value in [3] is “reducing tendency of pain value was observed”. Moreover, the “αβ-me ATP induced pain behavior (total time of lifting and licking)” value in the series with mice [4] (30 mg/kg i.p.) and in the series on mice [4] (10 to 50 mg/kg s.c.) was “suppressed” in each case. In addition, the “behavioral side effect at the time of the pain behavior observation” value in the series on mice [4] (αβ-me ATP test) and in the series with mice [5] (acetic acid test) was “not observed” in each case. Also, on rat type P2X2/3 receptor, the “P2X2/3,3 receptor inhibitory activity (in words)” value is given as “good receptor inhibitory activity”. Also, in the series on mice [5] (s.c., 10 and 30 mg/kg, 0.6% acetic acid i.p.), the “writhing behavior (acetic acid induced)” value is given as “dose-dependently suppressed”.

For the compound `O=P(O)(O)C(Cl)(Cl)P(=O)(O)O` [clodronate], on rat type P2X2/3 receptor, the IC50 was more than 300 µM and the “P2X2/3,3 receptor inhibitory activity (in words)” value was “did not show the P2X2/3,3 receptor inhibitory activity”. The “analgesic action in the tail-flick test” value in series [1] is on record as “dose-dependent analgesic action”.

With trinitrophenyl (TNP)-ATP [TNP-ATP], the IC50 at rat type P2X2/3 receptor was determined as 0.18 µM.

Take `O=P(O)(O)C(O)(Cn1ccnc1)P(=O)(O)O` [zoledronate]: the “mechanical allodynia and mechanical hyperalgesia accompanied by cancer pain” value in the series on rat cancer pain model is “inhibit”. At rat type P2X2/3 receptor, the IC50 is more than 300 µM and the “P2X2/3,3 receptor inhibitory activity (in words)” value is listed as “did not show the P2X2/3,3 receptor inhibitory activity”.

Turning to `Cc1ccc(C(=O)Nc2ccc(S(=O)(=O)O)c3cc(S(=O)(=O)O)cc(S(=O)(=O)O)c23)cc1NC(=O)c1cccc(NC(=O)Nc2cccc(C(=O)Nc3cc(C(=O)Nc4ccc(S(=O)(=O)O)c5cc(S(=O)(=O)O)cc(S(=O)(=O)O)c45)ccc3C)c2)c1` [suramin], the “pain score in cancer patients” value with cancer patients is “reduction of pain score was observed”. The IC50 on rat type P2X2/3 receptor worked out at 194 µM.
